Assay results: patent publication US6737383B1, “Herbicidal oxadiazolidines” (priority 1999, dated 2004)

Legend:
morningglory = experiment: Test B pre/postemergence morningglory; assay type: in vivo, Ipomoea hederacea
How it was run: (§1)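 Response is a visual 0-to-10 score relative to untreated plants, where 0 means no effect and 10 means complete control, taken twelve to sixteen days after application. Treatments went onto soil at planting and onto foliage of 1- to 4-leaf plants, using a surfactant-containing non-phytotoxic solvent.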

bedstraw = experiment: Test B pre/postemergence bedstraw; assay type: in vivo, Galium aparine; conditions: Postemergence
How it was run: as §1

wheat = experiment: Test B pre/postemergence wheat; assay type: in vivo, Triticum aestivum
How it was run: as §1

bamyardgrass = experiment: Test B flood test barnyardgrass; assay type: in vivo, Echinochloa crus-galli
How it was run: (§2)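 Flood test on plants grown to the 2-leaf stage; treated plants kept in greenhouse twelve to sixteen days, then visually rated against controls on a 0 (no effect) to 10 (complete control) scale.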

crabgrass = experiment: Test B pre/postemergence crabgrass; assay type: in vivo, Digitaria sanguinalis
How it was run: as §1

soybean = experiment: Test B pre/postemergence soybean; assay type: in vivo, Glycine max
How it was run: as §1

blackgrass = experiment: Test B pre/postemergence blackgrass; assay type: in vivo, Alopecurus myosuroides
How it was run: as §1

velvetleaf = experiment: Test B pre/postemergence velvetleaf; assay type: in vivo, Abutilon theophrasti
How it was run: as §1

rape = experiment: Test B pre/postemergence rape; assay type: in vivo, Brassica napus
How it was run: as §1

cocklebur = experiment: Test B pre/postemergence cocklebur; assay type: in vivo, Xanthium strumarium
How it was run: as §1

surinam grass = experiment: Test B pre/postemergence surinam grass; assay type: in vivo, Brachiaria decumbens
How it was run: as §1

giant foxtail = experiment: Test B pre/postemergence giant foxtail; assay type: in vivo, Setaria faberii
How it was run: as §1

wild oat = experiment: Test B pre/postemergence wild oat; assay type: in vivo, Avena fatua
How it was run: as §1

smallflower flatsedge = experiment: Test B flood test smallflower flatsedge; assay type: in vivo, Cyperus difformis
How it was run: as §2

corn = experiment: Test B pre/postemergence corn; assay type: in vivo, Zea mays
How it was run: as §1

duck salad = experiment: Test B flood test duck salad; assay type: in vivo, Heteranthera limosa
How it was run: as §2

[1] = Postemergence, Rate 125 g/ha, scale 0 to 10, 0 is no effect, 10 is complete control
[2] = Postemergence, Rate 500 g/ha, scale 0 to 10, 0 is no effect, 10 is complete control
[3] = Preemergence, Rate 62 g/ha, scale of 0 to 10 where 0 is no effect and 10 is complete control
[4] = Preemergence, Rate 125 g/ha, scale 0 to 10, 0 is no effect, 10 is complete control
[5] = Preemergence, Rate 250 g/ha, scale 0 to 10, 0 is no effect, 10 is complete control
[6] = Preemergence, Rate 500 g/ha, scale 0 to 10, 0 is no effect, 10 is complete control
[7] = Rate 62 g/ha, Postemergence, scale 0 to 10, 0 no effect, 10 complete control
[8] = Rate 62 g/ha, flood test species, Pre-emergence, visual evaluation after twelve to sixteen days
[9] = Rate 125 g/ha, under heading Pre-emergence, flood test species, visual evaluation after twelve to sixteen days
[10] = Rate 250 g/ha, Pre-emergence (flood test species), scale 0 to 10, 0 is no effect, 10 is complete control
[11] = Rate 500 g/ha, Pre-emergence section of Table B, 0 to 10 scale (0 no effect, 10 complete control)
[12] = Postemergence, Rate 250 g/ha, scale 0 to 10

`CC(C)C(=O)Cn1c(=O)on(C(=O)N(c2ccc(F)cc2F)C(C)C)c1=O` [Compound 486] was tested, and the “Morningglory plant response rating” value (morningglory; [1]) was 1, the “Plant response rating, Morningglory” value (morningglory; [2]) was 2 and the “Plant response rating, Morningglory” value (morningglory; [3]) was 0. The “Morningglory plant response rating” value (morningglory; [4]) was 0, the “Morningglory plant response rating” value (morningglory; [5]) was 0 and the “Morningglory plant response rating” value (morningglory; [6]) was 0. For the same compound, the “Morningglory plant response rating” value (morningglory; [7]) was 1, the “Bedstraw plant response rating” value (bedstraw; Rate 125 g/ha, scale 0 to 10, 0 is no effect, 10 is complete control) was 1 and the “Bedstraw plant response rating” value (bedstraw; Rate 250 g/ha, scale 0 to 10) was 4. The “Plant response rating, Bedstraw” value (bedstraw; Rate 500 g/ha, scale 0 to 10, 0 is no effect, 10 is complete control) was 8, the “Bedstraw plant response rating” value (bedstraw; Rate 62 g/ha, scale 0 to 10, 0 no effect, 10 complete control) was 0 and the “Wheat plant response rating” value (wheat; [1]) was 0. The “Plant response rating, Wheat” value (wheat; [2]) was 5, the “Plant response rating, Wheat” value (wheat; [3]) was 0 and the “Wheat plant response rating” value (wheat; [4]) was 0. For the same compound, the “Wheat plant response rating” value (wheat; [5]) was 0, the “Wheat plant response rating” value (wheat; [6]) was 0 and the “Wheat plant response rating” value (wheat; [7]) was 0. For the same compound, the “Plant response rating, Barnyardgrass (0 to 10 scale, 0 is no effect, 10 is complete control)” value (bamyardgrass; [8]) was 0, the “Barnyardgrass plant response rating (0 to 10 scale, 0 is no effect, 10 is complete control)” value (bamyardgrass; [9]) was 0 and the “Barnyardgrass plant response rating” value (bamyardgrass; [10]) was 0. For the same compound, the “Barnyardgrass plant response rating” value (bamyardgrass; [11]) was 0, the “Crabgrass plant response rating” value (crabgrass; [1]) was 3 and the “Crabgrass plant response rating” value (crabgrass; [12]) was 5. The “Plant response rating, Crabgrass” value (crabgrass; [2]) was 9, the “Plant response rating, Crabgrass” value (crabgrass; [3]) was 8 and the “Crabgrass plant response rating” value (crabgrass; [4]) was 9. The “Crabgrass plant response rating” value (crabgrass; [5]) was 10, the “Crabgrass plant response rating” value (crabgrass; [6]) was 10 and the “Crabgrass plant response rating” value (crabgrass; [7]) was 0. For the same compound, the “Soybean plant response rating” value (soybean; [1]) was 4, the “Plant response rating, Soybean” value (soybean; [2]) was 4 and the “Plant response rating, Soybean” value (soybean; [3]) was 0. The “Soybean plant response rating” value (soybean; [4]) was 0, the “Soybean plant response rating” value (soybean; [5]) was 0 and the “Soybean plant response rating” value (soybean; [6]) was 2. For the same compound, the “Soybean plant response rating” value (soybean; [7]) was 4, the “Blackgrass plant response rating” value (blackgrass; [1]) was 6 and the “Blackgrass plant response rating” value (blackgrass; [12]) was 8. For the same compound, the “Plant response rating, Blackgrass” value (blackgrass; [2]) was 8, the “Plant response rating, Blackgrass” value (blackgrass; [3]) was 7 and the “Blackgrass plant response rating” value (blackgrass; [4]) was 9. For the same compound, the “Blackgrass plant response rating” value (blackgrass; [5]) was 10, the “Blackgrass plant response rating” value (blackgrass; [6]) was 10 and the “Blackgrass plant response rating” value (blackgrass; [7]) was 0. The “Velvetleaf plant response rating” value (velvetleaf; [1]) was 0, the “Plant response rating, Velvetleaf” value (velvetleaf; [2]) was 6 and the “Plant response rating, Velvetleaf” value (velvetleaf; [3]) was 0. The “Velvetleaf plant response rating” value (velvetleaf; [4]) was 0, the “Velvetleaf plant response rating” value (velvetleaf; [5]) was 0 and the “Velvetleaf plant response rating” value (velvetleaf; [6]) was 0. For the same compound, the “Velvetleaf plant response rating” value (velvetleaf; [7]) was 0, the “Rape plant response rating” value (rape; [1]) was 0 and the “Plant response rating, Rape” value (rape; [2]) was 1. The “Plant response rating, Rape” value (rape; [3]) was 2, the “Rape plant response rating” value (rape; [4]) was 2 and the “Rape plant response rating” value (rape; [5]) was 6. The “Rape plant response rating” value (rape; [6]) was 6, the “Rape plant response rating” value (rape; [7]) was 0 and the “Cocklebur plant response rating” value (cocklebur; [1]) was 0. The “Cocklebur plant response rating” value (cocklebur; [12]) was 0, the “Plant response rating, Cocklebur” value (cocklebur; [2]) was 0 and the “Plant response rating, Cocklebur” value (cocklebur; [3]) was 0. The “Cocklebur plant response rating” value (cocklebur; [4]) was 0, the “Cocklebur plant response rating” value (cocklebur; [6]) was 0 and the “Cocklebur plant response rating” value (cocklebur; [7]) was 0. The “B. signalgrass plant response rating” value (surinam grass; [1]) was 0, the “B. signalgrass plant response rating” value (surinam grass; Postemergence, Rate 250 g/ha, scale 0 to 10, 0 no effect, 10 complete control) was 1 and the “Plant response rating, B. signalgrass” value (surinam grass; [2]) was 5. The “Plant response rating, B. signalgrass” value (surinam grass; [3]) was 5, the “B. signalgrass plant response rating” value (surinam grass; [4]) was 5 and the “B. signalgrass plant response rating” value (surinam grass; [5]) was 6. For the same compound, the “B. signalgrass plant response rating” value (surinam grass; [6]) was 8, the “B. signalgrass plant response rating” value (surinam grass; [7]) was 0 and the “Giant foxtail plant response rating” value (giant foxtail; [1]) was 7. For the same compound, the “Plant response rating, Giant foxtail” value (giant foxtail; [2]) was 9, the “Plant response rating, Giant foxtail” value (giant foxtail; [3]) was 9 and the “Giant foxtail plant response rating” value (giant foxtail; [4]) was 10. For the same compound, the “Giant foxtail plant response rating” value (giant foxtail; [5]) was 10, the “Giant foxtail plant response rating” value (giant foxtail; [6]) was 10 and the “Giant foxtail plant response rating” value (giant foxtail; [7]) was 2. The “Wild oats plant response rating” value (wild oat; [1]) was 0, the “Plant response rating, Wild oats” value (wild oat; [2]) was 3 and the “Plant response rating, Wild oats” value (wild oat; [3]) was 0. For the same compound, the “Wild oats plant response rating” value (wild oat; [4]) was 3, the “Wild oats plant response rating” value (wild oat; [5]) was 5 and the “Wild oats plant response rating” value (wild oat; [6]) was 8. For the same compound, the “Wild oats plant response rating” value (wild oat; [7]) was 0, the “Plant response rating, S. Flatsedge (0 to 10 scale, 0 is no effect, 10 is complete control)” value (smallflower flatsedge; [8]) was 0 and the “S. Flatsedge plant response rating (0 to 10 scale, 0 is no effect, 10 is complete control)” value (smallflower flatsedge; [9]) was 0. The “S. Flatsedge plant response rating” value (smallflower flatsedge; [10]) was 0, the “S. Flatsedge plant response rating” value (smallflower flatsedge; [11]) was 0 and the “Corn plant response rating” value (corn; [1]) was 0. For the same compound, the “Corn plant response rating” value (corn; [12]) was 0, the “Plant response rating, Corn” value (corn; [2]) was 3 and the “Plant response rating, Corn” value (corn; [3]) was 0. The “Corn plant response rating” value (corn; [4]) was 0, the “Corn plant response rating” value (corn; [5]) was 5 and the “Corn plant response rating” value (corn; [6]) was 8. The “Corn plant response rating” value (corn; [7]) was 0, the “Plant response rating, Ducksalad (0 to 10 scale, 0 is no effect, 10 is complete control)” value (duck salad; [8]) was 0 and the “Ducksalad plant response rating (0 to 10 scale, 0 is no effect, 10 is complete control)” value (duck salad; [9]) was 0. For the same compound, the “Ducksalad plant response rating” value (duck salad; [10]) was 0 and the “Ducksalad plant response rating” value (duck salad; [11]) was 0.
